Patent publication US20180153886A1, “USE OF TR[…] PREPARATION OF DRUGS FOR PREVENTING AND TREATING LIVER DISEASES” (priority 2015, published 2018)

Key:
[1] = in vivo; listed as trimetazidine, dihydrochloride; cited from earlier work
liver failure patients [2] = assay: Clinical trial involving 165 cases of liver failure, TMZ vs traditional therapeutic approach (general treatment); type: in vivo, human
[3] = test system: patients with liver failure / serious hepatitis; assay: Clinical cases: individual patients given oral TMZ on top of combined treatment; type: in vivo, human
Excerpt: Case 1: The patient had past positive HBsAg for over 20 years, during which they took multiple reexaminations of liver function and, as the results of all color ultrasound examinations were within normal range, they were not given any special treatment. Three months before, after catching cold and overwork, they developed abdominal distension and yellow urine, and was admitted to hospital following aggravation of the condition over 6 days. On admission, they were complicated with massive seroperitoneum and serious xanthochromia throughout the skin and mucosa of their whole body, feeling serious nausea, anorexia and feebleness.
Case 2: had had yellow urine for 25 days and dry mouth and bitter taste in mouth for 10 days before they came to the First Affiliated Hospital of Zhengzhou University. […] If they had been treated with the original approach, it would probably have taken two months before they could be discharged from hospital.
Case 3: had past positive HBsAg for 8 years, without regular treatment or periodic reexamination of relevant indicators. […] They took orally some “stomach medicine” (specific medicine not known) with poor effect. After the aforesaid symptoms aggravated for half a month, with urine turning as yellow as strong tea water, they were admitted to the First Affiliated Hospital of Zhengzhou University on Jan. 21, 2015. […] In merely 12 days, the patient achieved decrease of transaminase by dozens of times, relief from the critical condition, alleviated hepatocyte inflammatory responses and a favorable condition for liver cells, and greatly shortened length of hospitalization.
Case 4: […] They felt abdominal distension and nausea, accompanied with hydroncus in lower limbs, when they got tired half a month ago. For further treatment, they were admitted to the First Affiliated Hospital of Zhengzhou University on Jan. 13, 2015. Color ultrasound examination of abdomen detected diffuse changes of echo patterns of liver, cholecystolithiasis and cholecystitis. […] The patient's liver enzyme decreased to normal level after a short period, meeting the requirements for a surgical operation. Following the operation, their abdominal pain disappeared, with liver enzyme back to normal level and improved appetite. Their quality of life improves now without any discomfort.
Case 5: had past positive HBsAg for over 10 years, with HBsAg (+), HBeAg (+) and HBcAb (+), and had atrial fibrillation over 5 years, during which they orally took traditional Chinese medicine intermittently, but without regular treatment. They complained of feebleness, nausea, dry mouth and bitter taste, and anorexia for 6 days, and was hospitalized on Jan. 31, 2015. After admission, they had ALT 1881 u/L, AST 699 u/L, and prothrombin time activity (PTA) at 26%. The patient was extremely weak, in very poor spirits, with very poor appetite. A notice of critical illness diagnosis was given. […] The patient achieved a rapid decrease of transaminase and obvious improvement of liver synthesis function, and was safe from the critical condition. They continued to take the medicine till maturity of the treatment course, to improve the hepatocyte microcirculation and excretion of bilirubin. The patient soon recovered and left hospital.

liver failure patients [4] = assay: Single-center cohort clinical trial, trimetazidine (TMZ) vs DCA control, liver function indicators ALT/AST; type: in vivo, human; details: after 5 days of treatment, FIG. 2
Excerpt: Evaluate if trimetazidine is capable of improving the liver function of patients with hepatic failure.
The single-center cohort study was adopted as the clinical trial method.
In accordance with relevant references and the results of previous trails, the number of cases shall be no less than 50. Taking into account the number of loss to follow up and possible drop-out (to be controlled around 10%), 60 cases are required to be selected (30 cases for the trial group and 30 cases for the control group).
All serious hepatitis patients enrolled between Aug. 19, 2014 and […] were put in the control group; and all those enrolled between December 9 and the application date were in the trial group.
2. Exclusion Criteria • Patients under 18 or over 70 years old; • patients diagnosed with shock liver (ischemic liver disease); • patients with liver failure in pregnance or HELLP syndrome; • patients with liver failure secondary to malignant tumor in the liver; • patients with refractory hypotension • patients with septic shock; • patients about to receive liver transplant (within 8 hours); • patients allergic to trimetazidine drug; • patients […] of trimetazidine drug; • abuser of drugs and/or alcohol; • pregnant or lactation women; • patients with recent myocardial infarct (within half a year); • patients with serious renal inadequacy.
2. Control group: Diisopropylamine Dichloroacetate (DCA) (80 mg/D) for the control group in this trial, provided by Dandong Yichuang Pharmaceutical Co., Ltd, for a 4-week course of treatment.
3. […] HBV-related liver failure patients were also treated with lamivudine.
1. Alanine aminotransferase (ALT), tested by chromatometry, with products provided by Roche Diagnostics (Shanghai) Ltd.
2. Aspartate transaminase (AST), tested by chromatometry, with products provided by Roche Diagnostics (Shanghai) Ltd.

[5] = Case 5, one week plus another 5 days of TMZ

For `COc1ccc(CN2CCNCC2)c(OC)c1OC.Cl.Cl` [TMZ, 1-[2,3,4-trimethoxybenzyl] piperazine dihydrochloride], the elimination half-life [1] is listed as “approximately 6 hours”, the 30-day immortality rate (liver failure patients [2]; TMZ 20 mg tablet orally 3 times a day, 4 weeks, traditional therapeutic approach 44%, FIG. 5) is listed as “approximately 18%” and the 90-day immortality rate (liver failure patients [2]; TMZ 20 mg tablet orally 3 times a day, 4 weeks, traditional therapeutic approach 68%, FIG. 5) is listed as 35%. The “decrease rate of alanine aminotransferase and aspartate transaminase” value (liver failure patients [2]; laboratory test indicators, FIG. 3) was “significantly raise the decrease rate”, the “serious adverse reaction during the clinical trial” value (liver failure patients [2]; liver failure patients) was “no serious adverse reaction occurred” and the “hepatic glucose metabolism (PET-CT)” value (liver failure patients [2]; one liver failure patient, before vs after taking TMZ, FIG. 4) was “remarkably improved”. It also gave an AST ([3]; Case 1, 12 days after start of TMZ, on admission AST 303 u/L) of 68 u/L, an ALT ([3]; Case 1, HBsAg positive, 12 days after start of TMZ 1 tablet 3 times a day, on admission ALT 270 u/L) of 41 u/L and a total bilirubin ([3]; Case 2, oral TMZ for 20 days, on admission 401.9 umol/L) of 130 µmol/L. It also gave an AST ([3]; Case 2, oral TMZ for 20 days, on admission AST 484 u/L) of 52 u/L, an ALT ([3]; Case 2, serious drug-induced hepatitis, oral TMZ for 20 days, on admission ALT 983 u/L) of 95 u/L and an ALT ([3]; Case 3, acute-on-chronic liver failure, admitted Jan. 21, 2015, reexamination February 5, on admission ALT 1386 u/L) of 76 u/L. For the same compound, the “prothrombin time activity (PTA)” value ([3]; Case 3, reexamination February 5, on admission 27.4%) was 57.8%, the AST ([3]; Case 3, reexamination February 5, on admission AST 1368 u/L) was 85 u/L and the ALT ([3]; Case 4, HBsAg positive, oral TMZ for 13 days, on admission ALT 599 u/L) was 66 u/L. The AST ([3]; Case 4, oral TMZ for 13 days, on admission AST 663 u/L) was 79 u/L, the “prothrombin time activity (PTA)” value ([3]; Case 5, one week after start of oral TMZ, after admission 26%) was 48% and the ALT ([3]; Case 5, one week after start of oral TMZ, after admission ALT 1881 u/L) was 255 u/L. The AST ([3]; Case 5, one week after start of oral TMZ, after admission AST 699 u/L) was 77 u/L, the ALT [3, 5] was 117 u/L and the AST [3, 5] was 226 u/L. The “prothrombin time activity (PTA)” value [3, 5] was 50%, the “ALT decrease (k, mathematical model analysis)” value (liver failure patients [4]) was 259.4 and the “AST decrease (k, mathematical model analysis)” value (liver failure patients [4]) was 362.53.
In the case of Diisopropylamine Dichloroacetate [DCA], the “ALT decrease (k, mathematical model analysis)” value (liver failure patients [4]) is reported as 67.325 and the “AST decrease (k, mathematical model analysis)” value (liver failure patients [4]) is reported as 142.77.
